The values that follow come from ChEMBL document CHEMBL1201862, “PubChem BioAssay data set” (2004).

Some test systems named below: A498; HCT-116; HCT-15; HL-60; HOP-92; Hs-578T; M14; MDA-N; Malme-3M; NCI/ADR-RES; OVCAR-3; OVCAR-4; SF-268; SF-539; SK-OV-3; SN12C; U-251; UACC-257; SNB-75; TK-10.
Common to all, as to assay: growth of human tumour cells (NCI), 48 h

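Dose response: 5 concentrations. Exposure: 48 h. Format: 96-well plates. Endpoint: linear interpolation; highest concentration if not reached. GI50: concentration for 50% inhibition of growth.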 The source made the active and inactive calls. Cut-off read from the data, not from the text of the source: active = GI50 up to about 1.1 µM and inactive = higher.

For the compound `CSc1ccc(Nc2cc(=O)[nH]c(=O)[nH]2)cc1`, the GI50 in the experiment on A498 was > 100 µM (inactive); with HCT-116 it was > 100 µM (inactive); with HCT-15 it was above 100 µM; with HL-60, > 100 µM (inactive); in the experiment with HOP-92, > 100 µM (inactive); in the experiment on Hs-578T, > 100 µM (inactive). For the same compound, the GI50 in the experiment on M14, with MDA-N, in the experiment with Malme-3M, in the experiment with NCI/ADR-RES, in the experiment with OVCAR-3 and in the experiment on OVCAR-4 was > 100 µM (inactive) throughout. For the same compound, the GI50 in the experiment on SF-268, in the experiment with SF-539, in the experiment on SK-OV-3, with SN12C, in the experiment with U-251 and with UACC-257 was > 100 µM (inactive) each time.

As for `CC(C)(C)c1cc(C(CO)OCCOCCO)cc(C(C)(C)C)c1O` (stereo not given), the GI50 is > 100 µM (inactive) in the experiment on A498; > 100 µM (inactive) in the experiment with HCT-116; above 100 µM with HCT-15; > 100 µM (inactive) with HOP-92; > 100 µM (inactive) with Hs-578T; > 100 µM (inactive) in the experiment on M14. The GI50 in the experiment with MDA-N, in the experiment on Malme-3M, in the experiment on NCI/ADR-RES, in the experiment on OVCAR-3, in the experiment with OVCAR-4 and in the experiment on SF-268 was > 100 µM (inactive) in each case. The GI50 with SF-539, with SK-OV-3, with SN12C, in the experiment with SNB-75, with TK-10 and with U-251 was > 100 µM (inactive) in each case. Besides, the GI50 with UACC-257 is > 100 µM (inactive).

For the compound `CCOC(=O)CN1C(=O)c2c(NC(=O)C(=O)O)cccc2S1(=O)=O`, the GI50 is > 100 µM (inactive) in the experiment on A498; > 100 µM (inactive) in the experiment on HCT-116; above 100 µM in the experiment with HCT-15; > 100 µM (inactive) in the experiment with HL-60; > 100 µM (inactive) in the experiment on HOP-92; > 100 µM (inactive) in the experiment with Hs-578T. Also, the GI50 in the experiment on M14, in the experiment on MDA-N, with Malme-3M, in the experiment with NCI/ADR-RES, in the experiment with OVCAR-4 and in the experiment with SF-268 was > 100 µM (inactive) each time. The GI50 in the experiment on SK-OV-3, with SN12C, in the experiment with TK-10, in the experiment with U-251 and in the experiment on UACC-257 was > 100 µM (inactive) each time.

For the compound `O=C1CSC2(CC(/C=C/c3ccccc3)=NN2c2cccc(S(=O)(=O)O)c2)N1c1nc2ccccc2s1` (stereo not given), the GI50 was 26 µM (inactive) in the experiment with A498; 36.8 µM (inactive) in the experiment on HCT-116; 32.6 µM with HCT-15; 27 µM (inactive) with HL-60; 21.7 µM (inactive) in the experiment with HOP-92; 55.5 µM (inactive) in the experiment on Hs-578T. For the same compound, the GI50 was 41.3 µM (inactive) in the experiment with M14; 35.2 µM (inactive) in the experiment with MDA-N; 69.7 µM (inactive) with Malme-3M; 34.1 µM (inactive) with NCI/ADR-RES; 20.9 µM (inactive) with OVCAR-4; 39.7 µM (inactive) in the experiment on SF-539. Moreover, the GI50 was 28.7 µM (inactive) in the experiment with SN12C; 26.7 µM (inactive) in the experiment with SNB-75; 19.5 µM (inactive) in the experiment with TK-10; 20.6 µM (inactive) in the experiment with U-251; 60 µM (inactive) in the experiment on UACC-257.

In the case of `CNc1ccc2nc(-c3ccc(OC(=O)N(C)C)cc3)cn2c1`, the GI50 in the experiment with A498 was 17.5 µM (inactive); in the experiment on HCT-116 it was 18.3 µM (inactive); with HCT-15, 19.5 µM; in the experiment with HL-60 it was 22.5 µM (inactive); in the experiment on HOP-92, 22.6 µM (inactive); in the experiment with Hs-578T it was 41.2 µM (inactive). Further, the GI50 with M14 is 19.2 µM (inactive); in the experiment on MDA-N, 19.2 µM (inactive); in the experiment with Malme-3M, 54.3 µM (inactive); with NCI/ADR-RES, 23.3 µM (inactive); in the experiment with OVCAR-3, 40.7 µM (inactive); in the experiment with OVCAR-4, 17.5 µM (inactive). The GI50 in the experiment with SF-268 is 16.5 µM (inactive); in the experiment on SK-OV-3 it was 19 µM (inactive); in the experiment on SN12C, 14.1 µM (inactive); in the experiment on TK-10, 17.9 µM (inactive); in the experiment on U-251 it was 15.5 µM (inactive); in the experiment with UACC-257, 50.4 µM (inactive).

Take `N#CC12C(=O)N3C(=NC(c4ccco4)NC3c3ccco3)C1(C#N)C(c1ccco1)NC1=C2CCCC1` (stereo not given): the GI50 with A498 is > 100 µM (inactive); in the experiment with HCT-116 it was > 100 µM (inactive); in the experiment on HCT-15, above 100 µM; with HL-60, > 100 µM (inactive); in the experiment with HOP-92, > 100 µM (inactive); with Hs-578T, > 100 µM (inactive). Further, the GI50 in the experiment on M14, in the experiment with MDA-N, with Malme-3M, in the experiment on NCI/ADR-RES, in the experiment with OVCAR-4 and in the experiment on SF-268 was > 100 µM (inactive) throughout. Further, the GI50 with SK-OV-3, in the experiment on SN12C, in the experiment on TK-10, with U-251 and in the experiment on UACC-257 was > 100 µM (inactive) in each case.

Take `O=C1c2ccccc2C(=O)c2nn(N=P(CP(=Nn3nc4c(n3)C(=O)c3ccccc3C4=O)(c3ccccc3)c3ccccc3)(c3ccccc3)c3ccccc3)nc21`: the GI50 with A498 is > 100 µM (inactive); with HCT-116, > 100 µM (inactive); with HCT-15, above 100 µM; with HL-60 it was 36.3 µM (inactive); in the experiment with HOP-92, 96.8 µM (inactive); with Hs-578T it was > 100 µM (inactive). Besides, the GI50 in the experiment with M14, in the experiment on MDA-N, in the experiment with Malme-3M, with NCI/ADR-RES, in the experiment on OVCAR-3 and in the experiment with OVCAR-4 was > 100 µM (inactive) each time. The GI50 in the experiment on SF-268, in the experiment with SF-539, in the experiment with SK-OV-3, with SN12C, with TK-10 and with U-251 was > 100 µM (inactive) in each case. Further, in the experiment with UACC-257, the GI50 was > 100 µM (inactive).

In the case of `CSc1c(C#N)c2n(c3ccccc13)c1ccccc1[n+]2C`, the GI50 in the experiment with A498 was 21 µM (inactive); in the experiment on HCT-116 it was 6.4 µM (inactive); in the experiment on HCT-15 it was 33.4 µM; in the experiment on HL-60 it was 20.3 µM (inactive); with HOP-92, 33.5 µM (inactive); in the experiment with Hs-578T, 30.5 µM (inactive). In addition, the GI50 was 29.3 µM (inactive) in the experiment on M14; 26.2 µM (inactive) with MDA-N; 16 µM (inactive) with Malme-3M; 25.1 µM (inactive) with NCI/ADR-RES; 37.4 µM (inactive) in the experiment with OVCAR-3; 59.3 µM (inactive) in the experiment on OVCAR-4. Besides, the GI50 was 28.5 µM (inactive) in the experiment with SF-268; 22.4 µM (inactive) in the experiment with SF-539; 18.2 µM (inactive) in the experiment with SN12C; 37.2 µM (inactive) with SNB-75; 21.1 µM (inactive) with TK-10; 24.6 µM (inactive) in the experiment with U-251. In the experiment on UACC-257, the GI50 is 19.7 µM (inactive).

Turning to `CCOC(=O)NC(Nc1ccc(C(=O)O)cc1)(C(F)(F)F)C(F)(F)F`, the GI50 was > 100 µM (inactive) in the experiment with A498; > 100 µM (inactive) with HCT-116; above 100 µM in the experiment with HCT-15; > 100 µM (inactive) in the experiment on HL-60; > 100 µM (inactive) in the experiment with HOP-92; > 100 µM (inactive) in the experiment on Hs-578T. The GI50 with M14, in the experiment with MDA-N, with Malme-3M, in the experiment on NCI/ADR-RES, with OVCAR-3 and in the experiment on SF-268 was > 100 µM (inactive) in each case. Besides, the GI50 in the experiment on SF-539, in the experiment on SK-OV-3, in the experiment on SN12C, in the experiment on SNB-75, with TK-10 and in the experiment with U-251 was > 100 µM (inactive) in each case. Besides, the GI50 with UACC-257 was > 100 µM (inactive).

As for `NC(CCCCNc1ccn(C2OC(CO)C(O)C2O)c(=O)n1)C(=O)O` (stereo not given), the GI50 in the experiment on A498 was > 100 µM (inactive); in the experiment with HCT-15, 74.5 µM; in the experiment on HL-60, > 100 µM (inactive); in the experiment with HOP-92, 53.7 µM (inactive); with Hs-578T, > 100 µM (inactive); in the experiment with M14, 37.8 µM (inactive). In addition, the GI50 in the experiment on MDA-N, in the experiment with Malme-3M, in the experiment with NCI/ADR-RES, in the experiment with OVCAR-3, in the experiment with OVCAR-4 and in the experiment on SF-268 was > 100 µM (inactive) throughout. The GI50 in the experiment on SF-539 was > 100 µM (inactive); with SN12C, > 100 µM (inactive); with SNB-75, > 100 µM (inactive); in the experiment on TK-10, > 100 µM (inactive); with U-251, 97.1 µM (inactive); with UACC-257, > 100 µM (inactive).

Take `Cc1ccc(/C=C2\CN(C)CC3=C2OC(N)=C(C#N)C3c2ccc(C)cc2)cc1` (stereo not given): the GI50 in the experiment with A498 is 16 µM (inactive); with HCT-116, 12.6 µM (inactive); with HCT-15 it was 14.1 µM; in the experiment with HL-60, < 0.01 µM (active); in the experiment with HOP-92, 1.05 µM (active); in the experiment with Hs-578T it was 46.3 µM (inactive). In addition, the GI50 was 20.6 µM (inactive) with M14; 17.2 µM (inactive) with MDA-N; 20.3 µM (inactive) in the experiment on Malme-3M; 20.7 µM (inactive) in the experiment on NCI/ADR-RES; 12.1 µM (inactive) in the experiment with OVCAR-3; 12.2 µM (inactive) in the experiment with OVCAR-4. Also, the GI50 in the experiment on SF-268 was 30.1 µM (inactive); with SF-539, 41.7 µM (inactive); in the experiment on SK-OV-3, 9.84 µM (inactive); in the experiment with SN12C it was 17.3 µM (inactive); with TK-10, 31.5 µM (inactive); in the experiment with U-251 it was 34.7 µM (inactive). In addition, the GI50 in the experiment with UACC-257 was 18.8 µM (inactive).
